Measurements published in patent publication US10144706B2 (BRISTOL-MYERS SQUIBB COMPANY, priority 2016, dated 2018).
Like-named read-outs stand apart in the source and are kept apart here.

Biological target: T1, PD-1/PD-L1 interaction (PD-1-Ig / PD-L1-His) (Homo sapiens, UniProt Q9NZQ7)
T1 construct: hPDL1(18-239)-TVMV-His; TVMV protease site linker (C); made in house; host or cells: HEK293T
Experiment: PD-1/PD-L1 Homogenous Time-Resolved Fluorescence (HTRF) binding assay
Details: PD-L1-His 10 nM, PD-1-Ig 20 nM, read-out: Range or IC50
Text: The ability of the compounds of formula (I) to bind to PD-L1 was investigated using a PD-1/PD-L1 Homogenous Time-Resolved Fluorescence (HTRF) binding assay.
Homogenous Time-Resolved Fluorescence (HTRF) Binding Assay.
The interaction of PD-1 and PD-L1 can be assessed using soluble, purified preparations of the extracellular domains of the two proteins. The PD-1 and PD-L1 protein extracellular domains were expressed as fusion proteins with detection tags, for PD-1, the tag was the Fc portion of Immunoglobulin (PD-1-Ig) and for PD-L1 it was the 6 histidine motif (PD-L1-His). All binding studies were performed in an HTRF assay buffer consisting of dPBS supplemented with 0.1% […] bovine serum albumin and 0.05% (v/v) Tween-20. For the h/PD-L1-His binding assay, inhibitors were pre-incubated with PD-L1-His (10 nM final) for 15 m in 4 μl of assay buffer, followed by addition of PD-1-Ig (20 nM final) in 1 μl of assay buffer and further incubation for 15 m. HTRF detection was achieved using europium crypate-labeled anti-Ig (1 nM final) and allophycocyanin (APC) labeled anti-His (20 nM final). Antibodies were diluted in HTRF detection buffer and 5 μl was dispensed on top of the binding reaction. […] Additional binding assays were established between the human proteins PD-1-Ig/PD-L2-His (20 & 5 nM, respectively) and CD80-His/PD-L1-Ig (100 & 10 nM, respectively). […]

T1 sequence (Q9NZQ7 with tags, fused parts or gaps): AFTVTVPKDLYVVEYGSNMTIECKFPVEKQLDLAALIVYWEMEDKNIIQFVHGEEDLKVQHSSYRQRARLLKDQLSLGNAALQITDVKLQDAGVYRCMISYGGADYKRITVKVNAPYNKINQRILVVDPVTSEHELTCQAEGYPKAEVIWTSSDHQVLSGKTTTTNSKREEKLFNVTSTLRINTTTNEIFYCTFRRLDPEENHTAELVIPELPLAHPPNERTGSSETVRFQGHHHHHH

IC50 (IC50 range class) [nM] | IC50 (numeric IC50) [nM] | Structure (SMILES)
90.1 to 1000 |  | Cc1c(OCCCNCc2ccncc2)cccc1-c1cccc(OCCCN2CC[C@@H](O)C2)c1C [Example 2006, (R)-1-(3-((2,2′-dimethyl-3′-(3-((pyridin-4-ylmethyl)amino)propoxy)-[1,1′-biphenyl]-3-yl)oxy)propyl)pyrrolidin-3-ol]
90.1 to 1000 |  | Cc1c(OCCCNCCN(C)C)cccc1-c1cccc(OCCCN2CC[C@@H](O)C2)c1C [Example 2007, (R)-1-(3-((3′-(3-((2-(dimethylamino)ethyl)amino)propoxy)-2,2′-dimethyl-[1,1′-biphenyl]-3-yl)oxy)propyl)pyrrolidin-3-ol]
90.1 to 1000 |  | Cc1c(OCCCNCCn2cccn2)cccc1-c1cccc(OCCCN2CC[C@@H](O)C2)c1C [Example 2008, (R)-1-(3-((3′-(3-((2-(1H-pyrazol-1-yl)ethyl)amino)propoxy)-2,2′-dimethyl-[1,1′-biphenyl]-3-yl)oxy)propyl)pyrrolidin-3-ol]
20.1 to 90 |  | Cc1ccn(CCNCCCOc2cccc(-c3cccc(OCCCN4CC[C@@H](O)C4)c3C)c2C)n1 [Example 2009, (R)-1-(3-((2,2′-dimethyl-3′-(3-((2-(3-methyl-1H-pyrazol-1-yl)ethyl)amino)propoxy)-[1,1′-biphenyl]-3-yl)oxy)propyl)pyrrolidin-3-ol]
20.1 to 90 |  | Cc1c(OCCCNCCS(C)(=O)=O)cccc1-c1cccc(OCCCN2CC[C@@H](O)C2)c1C [Example 2010, (R)-1-(3-((2,2′-dimethyl-3′-(3-((2-(methylsulfonyl)ethyl)amino)propoxy)-[1,1′-biphenyl]-3-yl)oxy)propyl)pyrrolidin-3-ol]
20.1 to 90 |  | Cc1c(OCCCNC[C@H](O)CO)cccc1-c1cccc(OCCCN2CC[C@@H](O)C2)c1C [Example 2011, (S)-3-((3-((3′-(3-((R)-3-hydroxypyrrolidin-1-yl)propoxy)-2,2′-dimethyl-[1,1′-biphenyl]-3-yl)oxy)propyl)amino)propane-1,2-diol]
90.1 to 1000 |  | Cc1c(OCCCN[C@@H](CO)C(=O)O)cccc1-c1cccc(OCCCN2CC[C@@H](O)C2)c1C [Example 2012, (3-((3′-(3-((R)-3-hydroxypyrrolidin-1-yl)propoxy)-2,2′-dimethyl-[1,1′-biphenyl]-3-yl)oxy)propyl)-L-serine]
90.1 to 1000 |  | Cc1c(OCCCN[C@@](C)(CO)C(=O)O)cccc1-c1cccc(OCCCN2CC[C@@H](O)C2)c1C [Example 2013, (S)-3-hydroxy-2-((3-((3′-(3-((R)-3-hydroxypyrrolidin-1-yl)propoxy)-2,2′-dimethyl-[1,1′-biphenyl]-3-yl)oxy)propyl)amino)-2-methylpropanoic acid]
20.1 to 90 |  | Cc1c(OCCCNCCO)cccc1-c1cccc(OCCCN2CC[C@@H](O)C2)c1C [Example 2014, (R)-1-(3-((3′-(3-((2-hydroxyethyl)amino)propoxy)-2,2′-dimethyl-[1,1′-biphenyl]-3-yl)oxy)propyl)pyrrolidin-3-ol]
20.1 to 90 |  | Cc1c(OCCCNCC(O)C(=O)O)cccc1-c1cccc(OCCCN2CC[C@@H](O)C2)c1C (stereo partly drawn) [Example 2016, 2-hydroxy-3-((3-((3′-(3-((R)-3-hydroxypyrrolidin-1-yl)propoxy)-2,2′-dimethyl-[1,1′-biphenyl]-3-yl)oxy)propyl)amino)propanoic acid]
20.1 to 90 |  | Cc1c(OCCCN[C@H]2CC[C@H](O)CC2)cccc1-c1cccc(OCCCN2CC[C@@H](O)C2)c1C [Example 2017, (R)-1-(3-((3′-(3-(((1r,4r)-4-hydroxycyclohexyl)amino)propoxy)-2,2′-dimethyl-[1,1′-biphenyl]-3-yl)oxy)propyl)pyrrolidin-3-ol]
 | 69 | CC(=O)N[C@@H]1CCN(CCCOc2cccc(-c3cccc(OCCCN4CC[C@@H](O)C4)c3C)c2C)C1 [Example 2018, N—((R)-1-(3-((3′-(3-((R)-3-hydroxypyrrolidin-1-yl)propoxy)-2,2′-dimethyl-[1,1′-biphenyl]-3-yl)oxy)propyl)pyrrolidin-3-yl)acetamide]
0.04 to 20 |  | Cc1c(OCCCN2CCCC(C(N)=O)C2)cccc1-c1cccc(OCCCN2CC[C@@H](O)C2)c1C (stereo partly drawn) [Example 2019, 1-(3-((3′-(3-((R)-3-hydroxypyrrolidin-1-yl)propoxy)-2,2′-dimethyl-[1,1′-biphenyl]-3-yl)oxy)propyl)piperidine-3-carboxamide]
0.04 to 20 |  | Cc1c(OCCCNCCCn2ccnc2)cccc1-c1cccc(OCCCN2CC[C@@H](O)C2)c1C [Example 2020, (R)-1-(3-((3′-(3-((3-(1H-imidazol-1-yl)propyl)amino)propoxy)-2,2′-dimethyl-[1,1′-biphenyl]-3-yl)oxy)propyl)pyrrolidin-3-ol]
20.1 to 90 |  | Cc1c(OCCCNCCCN2CCOCC2)cccc1-c1cccc(OCCCN2CC[C@@H](O)C2)c1C [Example 2021, (R)-1-(3-((2,2′-dimethyl-3′-(3-((3-morpholinopropyl)amino)propoxy)-[1,1′-biphenyl]-3-yl)oxy)propyl)pyrrolidin-3-ol]
0.04 to 20 |  | Cc1c(OCCCNCCc2cccnc2)cccc1-c1cccc(OCCCN2CC[C@@H](O)C2)c1C [Example 2022, (R)-1-(3-((2,2′-dimethyl-3′-(3-((2-(pyridin-3-yl)ethyl)amino)propoxy)-[1,1′-biphenyl]-3-yl)oxy)propyl)pyrrolidin-3-ol]
20.1 to 90 |  | Cc1c(OCCCNCc2ccccn2)cccc1-c1cccc(OCCCN2CC[C@@H](O)C2)c1C [Example 2024, (R)-1-(3-((2,2′-dimethyl-3′-(3-((pyridin-2-ylmethyl)amino)propoxy)-[1,1′-biphenyl]-3-yl)oxy)propyl)pyrrolidin-3-ol]
20.1 to 90 |  | Cc1c(OCCCNCCO)cccc1-c1cccc(OCCCNCCO)c1C [Example 2027, 2,2′-((((2,2′-dimethyl-[1,1′-biphenyl]-3,3′-diyl)bis(oxy))bis(propane-3,1-diyl))bis(azanediyl))bis(ethan-1-ol)]
0.04 to 20 |  | Cc1c(OCCCNCCc2ccncc2)cccc1-c1cccc(OCCCNCCc2ccncc2)c1C [Example 2028, 3,3′-((2,2′-dimethyl-[1,1′-biphenyl]-3,3′-diyl)bis(oxy))bis(N-(2-(pyridin-4-yl)ethyl)propan-1-amine)]
0.04 to 20 |  | Cc1c(OCCCN(C)CCCO)cccc1-c1cccc(OCCCN(C)CCCO)c1C [Example 2030, 3,3′-((((2,2′-dimethyl-[1,1′-biphenyl]-3,3′-diyl)bis(oxy))bis(propane-3,1-diyl))bis(methylazanediyl))bis(propan-1-ol)]
0.04 to 20 |  | Cc1c(OCCCN(C)C[C@H](O)CO)cccc1-c1cccc(OCCCN(C)C[C@H](O)CO)c1C [Example 2031, (2S,2′S)-3,3′-((((2,2′-dimethyl-[1,1′-biphenyl]-3,3′-diyl)bis(oxy))bis(propane-3,1-diyl))bis(methylazanediyl))bis(propane-1,2-diol)]
20.1 to 90 |  | Cc1c(OCCCN(C)CCN(C)C)cccc1-c1cccc(OCCCN2CC[C@@H](O)C2)c1C [Example 2032, (R)-1-(3-((3′-(3-((2-(dimethylamino)ethyl)(methyl)amino)propoxy)-2,2′-dimethyl-[1,1′-biphenyl]-3-yl)oxy)propyl)pyrrolidin-3-ol]
0.04 to 20 |  | Cc1c(OCCCN2CC[C@@H](O)C2)cccc1-c1cccc(OCCCN2CC[C@H](CO)[C@H](O)C2)c1C [Example 2033, (3S,4R)-4-(hydroxymethyl)-1-(3-((3′-(3-((R)-3-hydroxypyrrolidin-1-yl)propoxy)-2,2′-dimethyl-[1,1′-biphenyl]-3-yl)oxy)propyl)piperidin-3-ol]
20.1 to 90 |  | Cc1c(OCCCN(C)CCO)cccc1-c1cccc(OCCCN2CC[C@@H](O)C2)c1C [Example 2034, (R)-1-(3-((3′-(3-((2-hydroxyethyl)(methyl)amino)propoxy)-2,2′-dimethyl-[1,1′-biphenyl]-3-yl)oxy)propyl)pyrrolidin-3-ol]
0.04 to 20 |  | Cc1c(OCCCNCCc2ccncc2)cccc1-c1cccc(OCCCN2CC[C@@H](O)C2)c1C [Example 2035, (R)-1-(3-((2,2′-dimethyl-3′-(3-((2-(pyridin-4-yl)ethyl)amino)propoxy)-[1,1′-biphenyl]-3-yl)oxy)propyl)pyrrolidin-3-ol]
90.1 to 1000 |  | Cc1c(OCCCN2CCN(C)C(=O)C2)cccc1-c1cccc(OCCCN2CC[C@@H](O)C2)c1C [Example 2036, (R)-4-(3-((3′-(3-(3-hydroxypyrrolidin-1-yl)propoxy)-2,2′-dimethyl-[1,1′-biphenyl]-3-yl)oxy)propyl)-1-methylpiperazin-2-one]
90.1 to 1000 |  | Cc1c(OCCCN[C@@H](Cc2ccncc2)C(=O)O)cccc1-c1cccc(OCCCN2CC[C@@H](O)C2)c1C [Example 2037, (S)-2-((3-((3′-(3-((R)-3-hydroxypyrrolidin-1-yl)propoxy)-2,2′-dimethyl-[1,1′-biphenyl]-3-yl)oxy)propyl)amino)-3-(pyridin-4-yl)propanoic acid]
90.1 to 1000 |  | Cc1c(OCCCNCCC(N)=O)cccc1-c1cccc(OCCCN2CC[C@@H](O)C2)c1C [Example 2038, (R)-3-((3-((3′-(3-(3-hydroxypyrrolidin-1-yl)propoxy)-2,2′-dimethyl-[1,1′-biphenyl]-3-yl)oxy)propyl)amino)propanamide]
